Results published in patent US20250082658A1, “CELL PROLIFERATION RETARDANT, COSMETIC CONTAINING SAME, AND CELL PROLIFERATION RETARDATION METHOD” (NATIONAL UNIVERSITY CORPORATION KAGAWA UNIVERSITY, priority 2022, published 2025).

Assays:
U251 cells [1] = experiment: WST-1 cell proliferation assay, U251; type: cell-based, human; conditions: 48 hours, 3, 5, 10, 30 or 50 mM
Procedure: (§1) The cell proliferation ability in medium alone (control) and 48 hours after administration of D-glucose or D-allose was compared by WST-1 assay. U251 cells or U87 cells, as cultured human brain tumor cells, were cultured for 48 hours without administration of a sugar (control) or with addition of D-allose or D-glucose at different concentrations (3, 5, 10, 30 or 50 mM), and then analyzed by WST-1 assay to compare the effects on cell proliferation.

U87 cells [2] = experiment: WST-1 cell proliferation assay, U87; type: cell-based, human; conditions: 48 hours, 3, 5, 10, 30 or 50 mM
Procedure: as §1

U251 cells [3] = experiment: Apoptosis by flow cytometry after annexin V staining, U251; type: cell-based, human; conditions: doses that induce growth inhibition, 48 hours
Procedure: (§2) The proportion of apoptotic cells in medium alone (control) and 48 hours after administration of D-glucose or D-allose was compared by flow cytometry analysis of the cells stained with annexin V. In order to elucidate the mechanism of the growth inhibition effect on brain tumor cells by D-allose, the cells were evaluated for apoptosis by flow cytometry after annexin V staining (FIG. 2).

U87 cells [4] = experiment: Apoptosis by flow cytometry after annexin V staining, U87; type: cell-based, human; conditions: doses that induce growth inhibition, 48 hours
Procedure: as §2

U251 cells [5] = experiment: Cell cycle evaluation by PI/RNase flow cytometry, U251; type: cell-based, human; conditions: 50 mM, 24 hours
Procedure: (§3) The proportion of cells in each cell cycle in medium alone (control) and 48 hours after administration of D-glucose or D-allose was compared by flow cytometry analysis.
(§4) Considering the possibility that growth inhibition of brain tumor cells may be caused by arrest of the cell cycle by D-allose, flow cytometry (FACS analysis) was carried out to identify changes in the cell cycle (see Yamaguchi F, Takata M. Kamitori K, et al. Rare sugar D-allose induces specific up-regulation of TXNIP and subsequent G1 cell cycle arrest in hepatocellular carcinoma cells by stabilization of p27kip1. Int J Oncol. 2008; 32(2):377-385). Specifically, the cell cycle was evaluated by Propidium Iodide (PI)/RNase Staining Solution (Cell Signaling Technology). The cells were cultured for 24 hours using DMEM, 50 mM D-glucose or 50 mM D-allose. The cultured cells were then recovered using trypsin and washed twice with PBS, and then fixed with 70% ethanol overnight at −20° C. After washing with PBS, the cells were stained in a dark room at room temperature for 30 minutes using 500 μl of PI reagent, washed with PBS, and then monitored for luminescence at 617 nm by flow cytometry. The data were analyzed using Kaluza analysis software (Ver. 1.2. Beckman Coulter), and the effects on the cell cycle were evaluated based on changes in the cell distribution rate at each phase of the cell cycle.

U87 cells [6] = experiment: Cell cycle evaluation by PI/RNase flow cytometry, U87; type: cell-based, human; conditions: 50 mM, 24 hours
Procedure: as §3, §4

brain tumor cells = experiment: CytoTell fluorogenic probe cell proliferation monitoring; type: cell-based, human; conditions: 50 mM; 96 hours after 24 hours probe uptake
Procedure: Next, CytoTell™, a fluorogenic probe for flow cytometry which is recently being used as a cell proliferation monitoring reagent, was taken up into the brain tumor cells for 24 hours, and the cells were allowed to stand for 96 hours either without administration of a sugar (control) or with administration of 50 mM D-glucose and 50 mM D-allose, and attenuation of the fluorogenic probe intensity in the cells was evaluated (FIG. 4-1).

PK-1 cells = experiment: WST-1 cell proliferation assay, PK-1; type: cell-based, human; conditions: 48 hours
Procedure: PK-1 cells, as cultured human pancreatic cancer cells, were cultured for 48 hours with addition of D-allose or D-glucose at 25 or 50 mM concentration, and then analyzed by WST-1 assay to compare the effects on cell proliferation. PK-1 cells, as cultured human pancreatic cancer cells, were cultured for 48 hours with addition of allitol or D-mannitol at 50 mM concentration, and then analyzed by WST-1 assay to compare the effects on cell proliferation.

[7] = test system: PK-1 pancreatic cancer cells; experiment: Apoptosis by flow cytometry with annexin V staining, PK-1; type: cell-based, human; conditions: 50 mM
Procedure: Apoptosis was evaluated by flow cytometry using annexin V staining.

[8] = test system: PK-1 pancreatic cancer cells; experiment: Cell cycle evaluation by PI/RNase flow cytometry, PK-1; type: cell-based, human; conditions: 50 mM
Procedure: Considering the possibility that the growth inhibition effect on cultured human PK-1 pancreatic cancer cells by D-allose may be via arrest of the cell cycle, changes in the cell cycle were identified using flow cytometry (FACS analysis). Specifically, PK-1 cells were brought to a serum-starved state overnight and then fixed with 70% ethanol overnight at −20° C. For staining of the cellular DNA, the cells obtained as a centrifuged pellet were resuspended in 450 μL of propidium iodide (PI)/RNase solution (Cell Signaling Technology, Danvers, MA, USA), and cultured in a dark environment at room temperature for 30 minutes. Analysis was then carried out with a flow cytometer (Cytomics FC500 flow cytometry system, Beckman Coulter, Indianapolis, IN, USA) using 10,000 cells per sample.

[9] = test system: cultured human PK-1 pancreatic cancer cells; experiment: Cell cycle time course after nocodazole arrest and release, PK-1; type: cell-based; conditions: 50 mM, after removal of 50 nM nocodazole (12 hours)
Procedure: Culturing was carried out for 12 hours in the presence of 50 nM nocodazole, and the cell cycle was arrested. The nocodazole was removed to restart the cell cycle, while administering medium alone (control) or D-glucose or D-allose (50 mM), after which samples were periodically taken and the cell cycle ratio was analyzed by flow cytometry.
Shown is the cell cycle ratio (G0/1 phase, S phase and G2/M phase) for cultured human pancreatic cancer cells PK-1 cultured with the schedule in FIG. 8.
Culturing was carried out according to the schedule in FIG. 8, except for administering D-mannitol or allitol instead of D-glucose or D-allose.
First, 50 nM of nocodazole was reacted with cultured human PK-1 pancreatic cancer cells for 12 hours to preemptively stop the cell cycle. The nocodazole was then removed from the culture solution to begin restart of the cell cycle, thus allowing periodic observation of the cell cycle from a reset state. The effect of D-allose on the speed of the cell cycle was investigated in detail under these experimental conditions.
Considering the possibility that the growth inhibition effect on cultured human PK-1 pancreatic cancer cells by allitol may be via arrest of the cell cycle, changes in the cell cycle were identified using flow cytometry (FACS analysis) by the same method as Example 2.

[10] = test system: glycolysis in cultured human PK-1 pancreatic cancer cells; experiment: Glycolysis evaluation with XFe24 extracellular flux analyzer (OCR, ECAR); type: cell-based
Description: In the same manner as Example 2, an XFe24 extracellular flux analyzer (24-well) by Agilent Technologies (previously Seahorse Bioscience) was used to measure the oxygen consumption rate (OCR value) and extracellular acidification rate (ECAR value) of cultured human PK-1 pancreatic cancer cells and examine effects on the glycolysis.

[11] = test system: human pancreatic cancer cells PK-1; experiment: Metabolome analysis of central energy metabolism (C-SCOPE), PK-1; type: cell-based; conditions: 50 mM, 12 hours
Procedure: (§5) Cultured human pancreatic cancer cells PK-1 and PANC-1 (5.0×10^6) were cultured for 12 hours at 37° C. in a 5% CO2 atmosphere, either without addition of a sugar (control) or with addition of 50 mM D-glucose or D-allose. Samples of both cells were then prepared according to the protocol provided by Human Metabolome Technologies, Inc. (Tsuruoka City, Yamagata Prefecture. Japan) and measured for 116 substances (see Table 1) related to central energy metabolism (glycolysis, TCA cycle, amino acid metabolism and nucleic acid metabolism) using an Analysis Service provided by the same company (C-SCOPE (https://humanmetabolome.com/jpn/service/analysis/cscope/)), after which principal component analysis (PCA) (FIG. 15), heat map analysis (FIGS. 16 to 19) and pathway map analysis (FIG. 20) were carried out based on the measurement results.

[12] = test system: human pancreatic cancer cells PANC-1; experiment: Metabolome analysis of central energy metabolism (C-SCOPE), PANC-1; type: cell-based; conditions: 50 mM, 12 hours
Procedure: as §5

[13] = test system: human pancreatic cancer cell line PK-1; experiment: Cell cycle visualization with tFucci(CA)5, PK-1; type: cell-based; conditions: 50 mm, 0 to 84 hours
Description: The human pancreatic cancer cell line PK-1 was transfected with tFucci(CA)5 (Plasmid #153521) (see Ando R., et al., Two new coral fluorescent proteins of distinct colors for sharp visualization of cell-cycle progression, bioRYiv, 2020, https://www.biorxiv.org/content/10.1101/2020.03.30.015156v2) purchased from Addgene (Massachusetts, USA), for cell cycle visualization. […] The cells were used to observe effects on the cell cycle of the human pancreatic cancer cell line PK-1 with and without addition of D-allose (50 mm).

cancer cell lines = conditions: reported (NPL 5); cited from earlier work
cell cycle = conditions: reported (PTL 1); cited from earlier work
[14] = known (PTL 2); cited from earlier work

O=C[C@H](O)[C@H](O)[C@H](O)[C@H](O)CO [D-allose]
cell proliferation ability (WST-1) (U251 cells [1]): dose-dependent cell growth inhibitory effect
cell proliferation ability (WST-1) (U87 cells [2]): dose-dependent cell growth inhibitory effect
induction of apoptosis (annexin V) (U251 cells [3]): apoptosis is not induced
induction of apoptosis (annexin V) (U87 cells [4]): apoptosis is not induced
arrest of the cell cycle (U251 cells [5]): did not induce arrest of the cell cycle
arrest of the cell cycle (U87 cells [6]): did not induce arrest of the cell cycle
attenuation of fluorogenic probe intensity in the cells (brain tumor cells): notably inhibited attenuation of fluorescent probe intensity
cell proliferation (WST-1) (PK-1 cells; 25 or 50 mM): exhibited a cell growth inhibitory effect
apoptosis (annexin V) [7]: apoptosis was not produced
G0/G1 phase ratio [8]: slight increase
transition from the G0/1 phase to the S phase [9]: significant delaying of transition from the G0/I phase to the S phase
transition to the G2/M phase [9]: This delaying effect was also exhibited for transition to the G2/M phase
glycolysis in the cells ([10]; 50 mM for 16 hours): notably inhibited the glycolysis
glycolytic capacity, or its reserve capacity ([10]; 50 mM for 16 hours): lowered
fructose 1,6-diphosphate [11]: reducing
fructose 1-phosphate in the polyol pathway [11]: increased
fructose 6-phosphate in the glycolysis [11]: increased
glucose 6-phosphate in the glycolysis [11]: increased
intracellular metabolic profile (PCA, heat map) [11]: significantly altered intracellular metabolic profile
fructose 1,6-diphosphate [12]: reducing
fructose 1-phosphate in the polyol pathway [12]: increased
fructose 6-phosphate in the glycolysis [12]: increased
glucose 6-phosphate in the glycolysis [12]: increased
intracellular metabolic profile (PCA, heat map) [12]: significantly altered intracellular metabolic profile
effect on the cell cycle (tFucci(CA)5 fluorescence microscopy) [13]: delay the cell cycle, primarily at transition from the G1 phase to the S phase
proliferation of cancer cell lines (cancer cell lines): can inhibit proliferation of cancer cell lines
G2 phase of the cell cycle (cell cycle): delaying the “G2 phase” of the cell cycle

OC[C@@H](O)[C@@H](O)[C@@H](O)[C@@H](O)CO [allitol, (2S,3S,4R,5R)-hexane-1,2,3,4,5,6-hexaol]
cell proliferation (WST-1) (PK-1 cells; 50 mM): exhibited a cell proliferation inhibiting effect
apoptosis (annexin V) [7]: no apoptosis had occurred
transition from the G0/1 phase to the S phase [9]: significantly delayed the transition from the G0/1 phase to the S phase
transition to the G2/M phase [9]: This delaying effect was also exhibited for transition to the G2/M phase
glycolysis in the cells ([10]; 50 mM for 18 hours): inhibited the glycolysis
glycolytic capacity, or its reserve capacity ([10]; 50 mM for 18 hours): significantly lowered
fat accumulation [14]: fat accumulation-inhibiting effect
